Values of other authors as cited in patent publication EP4286484B1, “AQUEOUS PRETREATMENT LIQUID, INK SET, PRINTED ITEM, AND SEPARATION METHOD” (priority 2022, dated 2023).

Settings: anhydrous calcium salt of the named counter anion

Compound: O=C([O-])c1ccccc1.O=C([O-])c1ccccc1.[Ca+2] [benzoate ion]
- solubility of the corresponding anhydrous calcium salt in 100 g of water at 20°C: 2 g
